Columns and labels:
Assay in all cases: Test F mixtures with safener cloquintocet-mexyl, pre-/postemergence plant response
Format in all cases: in vivo
Settings in all cases: applied alone
[1] = test system: winter wheat (TRZAW, Triticum aestivum)
[2] = test system: winter barley (HORVX, Hordeum vulgare)
[3] = test system: wild oat (AVEFA, Avena fatua)

With `CCc1cc(-c2ccc(C(F)(F)F)cc2)nn1-c1c(OC(=O)OC(C)C)cnn(C)c1=O` [Compound 12] the “TRZAW Obsd. (observed effect) plant response rating, scale 0 to 100” value ([1]; postemergence, 4 g a.i./ha) was 0, the “TRZAW Obsd. (observed effect) plant response rating, scale 0 to 100” value ([1]; postemergence, 8 g a.i./ha) was 18 and the “TRZAW Obsd. (observed effect) plant response rating, scale 0 to 100” value ([1]; postemergence, 16 g a.i./ha) was 77. The “TRZAW Obsd. (observed effect) plant response rating, scale 0 to 100” value ([1]; preemergence, 4 g a.i./ha) was 0, the “TRZAW Obsd. (observed effect) plant response rating, scale 0 to 100” value ([1]; preemergence, 8 g a.i./ha) was 75 and the “TRZAW Obsd. (observed effect) plant response rating, scale 0 to 100” value ([1]; preemergence, 16 g a.i./ha) was 97. The “HORVX Obsd. (observed effect) plant response rating, scale 0 to 100” value ([2]; postemergence, 4 g a.i./ha) was 0, the “HORVX Obsd. (observed effect) plant response rating, scale 0 to 100” value ([2]; postemergence, 8 g a.i./ha) was 32 and the “HORVX Obsd. (observed effect) plant response rating, scale 0 to 100” value ([2]; postemergence, 16 g a.i./ha) was 65. The “HORVX Obsd. (observed effect) plant response rating, scale 0 to 100” value ([2]; preemergence, 4 g a.i./ha) was 10, the “HORVX Obsd. (observed effect) plant response rating, scale 0 to 100” value ([2]; preemergence, 8 g a.i./ha) was 73 and the “HORVX Obsd. (observed effect) plant response rating, scale 0 to 100” value ([2]; preemergence, 16 g a.i./ha) was 80. For the same molecule, the “AVEFA Obsd. (observed effect) plant response rating, scale 0 to 100” value ([3]; postemergence, 4 g a.i./ha) was 13, the “AVEFA Obsd. (observed effect) plant response rating, scale 0 to 100” value ([3]; postemergence, 8 g a.i./ha) was 98 and the “AVEFA Obsd. (observed effect) plant response rating, scale 0 to 100” value ([3]; postemergence, 16 g a.i./ha) was 100. The “AVEFA Obsd. (observed effect) plant response rating, scale 0 to 100” value ([3]; preemergence, 4 g a.i./ha) was 7, the “AVEFA Obsd. (observed effect) plant response rating, scale 0 to 100” value ([3]; preemergence, 8 g a.i./ha) was 92 and the “AVEFA Obsd. (observed effect) plant response rating, scale 0 to 100” value ([3]; preemergence, 16 g a.i./ha) was 96.
